Measurements published in ChEMBL document CHEMBL1143224, “An asymmetric C8/C8'-tripyrrole-linked sequence-selective pyrrolo[2,1-c][1,4]benzodiazepine (PBD) dimer DNA interstrand cross-linking agent spanning 11 DNA base pairs” (2008).

Tests used:
K562 = assay: Cytotoxicity against human K562 cells; assay type: functional
[1] = Cytotoxicity against human NCI60 cells; assay type: functional
Escherichia coli = assay: Induction of cross linking in DS pUC18 plasmid

SMILES | GI50 (K562) [nM] | GI50 [1] [nM] | TGI [1] [nM] | XL50 (Escherichia coli) [µM] | LC50 [1] [nM]
C=C1C[C@H]2C=Nc3cc(OCCCOc4cc5c(cc4OC)C(=O)N4CC(=C)C[C@H]4C=N5)c(OC)cc3C(=O)N2C1 [SJG-136] | 8 | 7 | 87 | 0.06 | 
COc1cc2c(cc1OCCCNC(=O)c1cc(NC(=O)c3cc(NC(=O)c4cc(NC(=O)CCCOc5cc6c(cc5OC)C(=O)N5CCC[C@H]5C=N6)cn4C)cn3C)cn1C)N=C[C@@H]1CCCN1C2=O | 37 | 14 | 490 | 0.23 | 22900
